In PubChem BioAssay (NCI):
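48-hour exposure; five concentrations; linearly interpolated endpoints. The concentration for 50% growth inhibition is given as GI50. The concentration for full growth arrest is given as TGI.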

Legend:
Assay in all cases: NCI tumour cell line growth inhibition, 48 h
[1] = test system: 786-0 renal
[2] = test system: A498 renal
[3] = test system: A549 NSCLC
[4] = test system: ACHN renal
[5] = test system: BT-549 breast
[6] = test system: CAKI-1 renal
[7] = test system: CCRF-CEM leukemia
[8] = test system: COLO 205 colon
[9] = test system: DU-145 prostate
[10] = test system: EKVX NSCLC
[11] = test system: HCC-2998 colon
[12] = test system: HCT-116 colon
[13] = test system: HCT-15 colon
[14] = test system: HL-60(TB) leukemia
[15] = test system: HOP-62 NSCLC
[16] = test system: HOP-92 NSCLC
[17] = test system: HS 578T breast
[18] = test system: HT29 colon
[19] = test system: IGROV1 ovarian
[20] = test system: K-562 leukemia
[21] = test system: KM12 colon
[22] = test system: LOX IMVI melanoma
[23] = test system: M14 melanoma
[24] = test system: MALME-3M melanoma
[25] = test system: MCF7 breast
[26] = test system: MDA-MB-231 breast
[27] = test system: MDA-MB-435
[28] = test system: MOLT-4 leukemia
[29] = test system: NCI-H226 lung
[30] = test system: NCI-H23 lung
[31] = test system: NCI-H460 lung
[32] = test system: NCI-H522 lung
[33] = test system: NCI/ADR-RES ovarian
[34] = test system: OVCAR-3 ovarian
[35] = test system: OVCAR-4 ovarian
[36] = test system: OVCAR-5 ovarian
[37] = test system: OVCAR-8 ovarian
[38] = test system: PC-3 prostate
[39] = test system: RPMI-8226 leukemia
[40] = test system: RXF 393 renal
[41] = test system: SF-268 CNS
[42] = test system: SF-295 CNS
[43] = test system: SF-539 CNS
[44] = test system: SK-MEL-2 melanoma
[45] = test system: SK-MEL-28 melanoma
[46] = test system: SK-MEL-5 melanoma
[47] = test system: SK-OV-3 ovarian
[48] = test system: SN12C renal
[49] = test system: SNB-19 CNS
[50] = test system: SNB-75 CNS
[51] = test system: SR leukemia
[52] = test system: SW-620 colon
[53] = test system: T-47D breast
[54] = test system: TK-10 renal
[55] = test system: U251 CNS
[56] = test system: UACC-257 melanoma
[57] = test system: UACC-62 melanoma
[58] = test system: UO-31 renal

Nc1ccn(C2CC(O)C(CO)O2)c(=O)n1 (stereo unspecified)
GI50 [1]: > 5 mM
TGI [1]: > 5 mM
GI50 [2]: > 5 mM
TGI [2]: > 5 mM
GI50 [3]: > 5 mM
TGI [3]: > 5 mM
GI50 [4]: > 5 mM
TGI [4]: > 5 mM
GI50 [5]: > 5 mM
TGI [5]: > 5 mM
GI50 [6]: > 5 mM
TGI [6]: > 5 mM
GI50 [7]: > 5 mM
TGI [7]: > 5 mM
GI50 [8]: > 5 mM
TGI [8]: > 5 mM
GI50 [9]: > 5 mM
TGI [9]: > 5 mM
GI50 [10]: > 5 mM
TGI [10]: > 5 mM
GI50 [11]: > 5 mM
TGI [11]: > 5 mM
GI50 [12]: > 5 mM
TGI [12]: > 5 mM
GI50 [13]: > 5 mM
TGI [13]: > 5 mM
GI50 [14]: > 5 mM
TGI [14]: > 5 mM
GI50 [15]: > 5 mM
TGI [15]: > 5 mM
GI50 [16]: > 5 mM
TGI [16]: > 5 mM
GI50 [17]: > 5 mM
TGI [17]: > 5 mM
GI50 [18]: > 5 mM
TGI [18]: > 5 mM
GI50 [19]: > 5 mM
TGI [19]: > 5 mM
GI50 [20]: > 5 mM
TGI [20]: > 5 mM
GI50 [21]: > 5 mM
TGI [21]: > 5 mM
GI50 [22]: > 5 mM
TGI [22]: > 5 mM
GI50 [23]: > 5 mM
TGI [23]: > 5 mM
GI50 [24]: > 5 mM
TGI [24]: > 5 mM
GI50 [25]: > 5 mM
TGI [25]: > 5 mM
GI50 [26]: > 5 mM
TGI [26]: > 5 mM
GI50 [27]: > 5 mM
TGI [27]: > 5 mM
GI50 [28]: > 5 mM
TGI [28]: > 5 mM
GI50 [29]: > 5 mM
TGI [29]: > 5 mM
GI50 [30]: > 5 mM
TGI [30]: > 5 mM
GI50 [31]: > 5 mM
TGI [31]: > 5 mM
GI50 [32]: > 5 mM
TGI [32]: > 5 mM
GI50 [33]: > 5 mM
TGI [33]: > 5 mM
GI50 [34]: > 5 mM
TGI [34]: > 5 mM
GI50 [35]: > 5 mM
TGI [35]: > 5 mM
GI50 [36]: > 5 mM
TGI [36]: > 5 mM
GI50 [37]: > 5 mM
TGI [37]: > 5 mM
GI50 [38]: > 5 mM
TGI [38]: > 5 mM
GI50 [39]: > 5 mM
TGI [39]: > 5 mM
GI50 [40]: > 5 mM
TGI [40]: > 5 mM
GI50 [41]: > 5 mM
TGI [41]: > 5 mM
GI50 [42]: > 5 mM
TGI [42]: > 5 mM
GI50 [43]: > 5 mM
TGI [43]: > 5 mM
GI50 [44]: > 5 mM
TGI [44]: > 5 mM
GI50 [45]: > 5 mM
TGI [45]: > 5 mM
GI50 [46]: > 5 mM
TGI [46]: > 5 mM
GI50 [47]: > 5 mM
TGI [47]: > 5 mM
GI50 [48]: > 5 mM
TGI [48]: > 5 mM
GI50 [49]: > 5 mM
TGI [49]: > 5 mM
GI50 [50]: > 5 mM
TGI [50]: > 5 mM
GI50 [51]: > 5 mM
TGI [51]: > 5 mM
GI50 [52]: > 5 mM
TGI [52]: > 5 mM
GI50 [53]: > 5 mM
TGI [53]: > 5 mM
GI50 [54]: > 5 mM
TGI [54]: > 5 mM
GI50 [55]: > 5 mM
TGI [55]: > 5 mM
GI50 [56]: > 5 mM
TGI [56]: > 5 mM
GI50 [57]: > 5 mM
TGI [57]: > 5 mM
GI50 [58]: > 5 mM
TGI [58]: > 5 mM
